# Test results taken from patent US10689394B2, “Thieno[2,3-b]pyridine derivative, quinoline derivative, and use thereof” (The University of Tokyo, priority 2016, dated 2020).
# What was measured:
# [1] = system: SOD1 G93A transgenic mice (ALS model mice); assay: ALS model mice, continuous intracerebroventricular administration (rotarod onset, survival, motor neuron count); type: in vivo, mouse
# Protocol: Wild-type mice (C57BL/6) and SOD1 G93A transgenic mice (G1L/+ line, backcrossed to C57BL/6) were purchased from The Jackson Laboratory, and were then mated and/or bred. All assays were carried out using only male mice.
# Using Brain infusion kit 3 (Alzet) and an osmotic pump (Model 2006, Alzet), the compound was continuously administered into the cerebral ventricle of the SOD1 G93A transgenic mice (average onset: 28.1+1.3-week-old (Nishitoh et al., Genes Dev 22, 1451-1464, 2008)), from the time at which the mice were 22 weeks old (0.15 μL/h, 6 weeks/pump). As a preparation stage, 50% DMSO/PBS or each compound was filled into the pump, and was then immersed in 0.9% NaCl, so that priming was carried out 37° C. for 60 hours or more. Upon installation of the pump, the mice were anesthetized by intraperitoneal administration of 0.01 μL/g xylazine (1 mg/ml, Sigma) and 0.007 μL/g Pentobarbital Sodium Salt (5.4 mg/ml, Nacalai). The head portion of each mouse was dehaired, and the mouse was then fixed on a stereotaxic instrument equipped with a manipulator (NARISHIGE). Thereafter, the skin was cut, and the skull was exposed. The coordinate of Bregma was set at 0, and the position that was 1.1 mm to the right, 0.5 mm backward, and 2.5 mm downward was set at the coordinate of the administered cerebral ventricle. The pump was arranged under the dorsal skin, a cannula was then fixed using an adhesive, and the skin on the head portion of the mouse was closed using the adhesive. The pump was exchanged with a new one every 6 weeks, until it became difficult to perform surgery due to the onset of the pathologic conditions of ALS. Upon the exchange of the pump, the mouse was anesthetized, using 4% Isoflurane (Wako Pure Chemical Industries, Ltd.) for introduction, and 2% Isoflurane for maintenance. The dorsal surface of the pump-inserted site was dehaired, and the skin was excised to remove the pump. The removed pump was exchanged with a new pump that had previously been filled with 50% DMSO/PBS or each compound. After the exchange of the pump, the excised skin was closed with Wound clip (Alzet).
# From the week at which the mice became 25 weeks old, motor function was measured three times a week according to a rotarod test. ROTA-ROD (Muromachi Kikai Co., Ltd.) was set at a reached rotation speed of 40 rpm and an acceleration time of 180 seconds. The period of time required until the target mouse was fallen during 300 seconds at longest was recorded. An interval of 180 seconds was provided between two trials. Two measurements were carried out in each trial, and better results were determined to be the results of the day. An average value in a week was calculated. […]
# dimerization of SOD1 = dimerization of SOD1 (Homo sapiens, UniProt P00441); assay: Inhibition of dimerization of SOD1; type: cell-based; conditions: under conditions for inhibiting the binding between mutant SOD1 and Derlin-1
# dimerization of SOD1, sequence (P00441 whole entry): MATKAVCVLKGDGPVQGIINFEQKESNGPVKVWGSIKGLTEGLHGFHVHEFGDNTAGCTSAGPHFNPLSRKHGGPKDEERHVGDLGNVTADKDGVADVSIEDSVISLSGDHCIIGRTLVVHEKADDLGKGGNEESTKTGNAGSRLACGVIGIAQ
# Text: In the above-described SOD1-Derlin-1-binding inhibition experiment, SOD1 G93A that is a representative mutant SOD1 associated with the onset of the pathologic conditions of ALS was used. According to previous studies, however, it has become clear that 122 types of ALS-related mutant SOD1s bind to Derlin-1 (Fujisawa et al., Ann Neurol 72, 739-749, (2012)).
smiles,measurement,setting,value
"C=CCN(C(=O)c1sc2nc(-c3cccnc3)ccc2c1N)c1ccccc1 [Example 1, N-allyl-3-amino-N-phenyl-6-(3-pyridinyl)thieno[2,3-b]pyridine-2-carboxamide]",Effects on model mice,[1]; SOD1 G93A transgenic mice,Significant effects
same,number of motor neurons in spinal cord (Nissl staining),"[1]; SOD1 G93A transgenic mice, 31 weeks old, lumbar cord anterior horn, vs DMSO group, FIG. 11, 12",the number of motor neurons was significantly high
same,"period of time required until the onset of the pathologic conditions (Onset), rotarod test","[1]; male SOD1 G93A transgenic mice, 3 mM continuous i.c.v. by osmotic pump from 22 weeks old, vs DMSO, FIG. 10A",the onset was significantly delayed
same,effect of extending the survival period (Survival),"[1]; male SOD1 G93A transgenic mice, 3 mM continuous i.c.v. by osmotic pump from 22 weeks old, vs DMSO, FIG. 10B",approximately 14%
same,inhibitory activity on dimerization of SOD1,dimerization of SOD1,did not exhibit inhibitory activity
